Experimental data: paper PMC9091059 (Nature biotechnology, 2021)
Where two headings read alike, the source gives them in different places.

Legend:
[1] = test system: GRABeCBmut (eCBmut) sensor; assay: eCBmut fluorescence response to ligands in HEK293T cells; format: cell-based, human; conditions: all concentrations tested
wildtype CB1R = wildtype CB1R (Homo sapiens, UniProt P21554); assay: Gq-i Ca2+ imaging assay; format: cell-based; conditions: HEK293T cells expressing CB1R
eCB2.0 [2] = assay: Gq-i Ca2+ imaging assay; format: cell-based, human; conditions: HEK293T cells expressing eCB2.0
human CB1R = human CB1R (Homo sapiens, UniProt P21554); assay: BRET Gβγ sensor assay, cells expressing CB1R; format: cell-based; conditions: 20 μM 2-AG
Chain of human CB1R (P21554 whole entry): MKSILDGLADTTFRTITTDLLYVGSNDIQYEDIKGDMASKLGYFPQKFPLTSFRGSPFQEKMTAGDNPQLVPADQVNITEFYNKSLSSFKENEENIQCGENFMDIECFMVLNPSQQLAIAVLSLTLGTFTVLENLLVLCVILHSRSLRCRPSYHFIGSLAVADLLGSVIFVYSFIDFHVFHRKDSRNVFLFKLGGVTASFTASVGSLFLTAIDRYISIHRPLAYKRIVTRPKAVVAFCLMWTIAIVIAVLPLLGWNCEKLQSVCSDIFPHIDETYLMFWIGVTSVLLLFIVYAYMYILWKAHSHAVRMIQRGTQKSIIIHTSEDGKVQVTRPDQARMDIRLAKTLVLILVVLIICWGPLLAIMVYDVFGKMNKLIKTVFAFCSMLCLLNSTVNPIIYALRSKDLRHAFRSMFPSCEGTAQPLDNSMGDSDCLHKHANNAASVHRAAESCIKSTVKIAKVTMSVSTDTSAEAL

eCB2.0 [3] = assay: BRET Gβγ sensor assay, cells expressing eCB2.0; format: cell-based, human; conditions: 20 μM 2-AG
eCBmut = assay: BRET Gβγ sensor assay, cells expressing eCBmut; format: cell-based, human; conditions: 20 μM 2-AG
[4] = test system: GRABeCBmut (eCBmut) sensor; format: cell-based, human; conditions: cultured rat cortical neurons, even at 100 μM
[5] = test system: spontaneous transient eCB2.0 signals in cultured neurons; format: cell-based, rat
[6] = test system: evoked eCB release in dorsolateral striatum (DLS) slices; design: species or system mouse
[7] = test system: eCB2.0 fluorescence in hippocampal slices; assay: 2-photon imaging of eCB2.0 in acute hippocampal CA1 slices; design: species or system mouse
[8] = test system: stimulus-evoked eCB2.0 signal in cultured rat cortical neurons; format: cell-based; conditions: 20 electrical pulses, 68 min after application; MAGL (JZL184) or FAAH (URB597) inhibition

Chain of wildtype CB1R (P21554 whole entry): as above

CCCCC/C=C\C/C=C\C/C=C\C/C=C\CCCC(=O)OC(CO)CO [2-AG, 2-arachidonoylglycerol]
eCBmut fluorescence response [1]: no response | jRGECO1a Ca2+ response (G protein activation via Gαq-i) (wildtype CB1R): increased jRGECO1a fluorescent response in a dose-dependent manner | jRGECO1a Ca2+ response (G protein activation via Gαq-i) (eCB2.0 [2]): failed in inducing jRGECO1a response | BRET change (Gβγ activation) (human CB1R): robust increase in BRET | BRET change (Gβγ activation) (eCB2.0 [3]): no effect on BRET | BRET change (Gβγ activation) (eCBmut): no effect on BRET | eCBmut fluorescence response [4]: neither 2-AG nor AEA elicited a response

Cc1c(C(=O)NN2CCCCC2)nn(-c2ccc(Cl)cc2Cl)c1-c1ccc(I)cc1 [AM251]
effect on spontaneous eCB2.0 transients [5]: no longer observed | effect on electrically evoked eCB2.0 signal [6]: blocked the response | effect on AEA-induced eCB2.0 fluorescence increase [7]: reversed | effect on electrically evoked eCB2.0 signal [7]: eliminated the signal induced by even 100 field stimuli

NC(=O)c1cccc(-c2cccc(OC(=O)NC3CCCCC3)c2)c1 [URB597]
effect on decay time constant of evoked eCB2.0 signal [8]: only a slight—albeit significant—effect on the decay time constant

O=C(Oc1ccc([N+](=O)[O-])cc1)N1CCC(C(O)(c2ccc3c(c2)OCO3)c2ccc3c(c2)OCO3)CC1 [JZL184]
effect on decay time constant of evoked eCB2.0 signal [8]: significantly increased the decay time constant

CCCCC/C=C\C/C=C\C/C=C\C/C=C\CCCC(=O)NCCO [AEA, anandamide]
eCBmut fluorescence response [1]: no response

O=C(NN1CCCCC1)c1nn(-c2ccc(Cl)cc2Cl)c2c1CCCc1cc(Cl)ccc1-2 [NESS0327]
effect on spontaneous eCB2.0 transients ([5]; NESS0327 1 μM, TTX 1 μM): no longer observed
